Columns and labels:
[1] = test system: Burkitt lymphoma CA46 cells; experiment: Growth inhibition of Burkitt lymphoma CA46 cells; format: cell-based; details: Homo sapiens, CA46, read-out: IC50 in CA46 cells
[2] = test system: PBL not stimulated with PHA; experiment: Cytotoxicity for resting peripheral blood lymphocytes; format: cell-based; details: Homo sapiens, Lymphocyte, read-out: IC50 PBLresting
[3] = test system: cyclin B; experiment: Western blot in HeLa cells; format: cell-based, human; details: 25 µM
[4] = test system: cdc25C; experiment: Western blot in HeLa cells; format: cell-based, human; details: 25 µM; for cdc25C forms: 24 h; for cdc25c expression: 48 h
[5] = test system: aurora kinase A; experiment: Western blot in HeLa cells; format: cell-based, human; details: 25 µM, 24 h
[6] = test system: γ-H2A.X; experiment: Western blot in HeLa cells; format: cell-based, human; details: 25 µM, 24 h
[7] = test system: Mcl-1; experiment: Western blot in HeLa cells; format: cell-based, human; details: 25 µM, 24 h
[8] = test system: HeLa cells; experiment: Immunofluorescence of the microtubule network; format: cell-based, human; details: 25 µM, 24 h
[9] = test system: Bcl-2; experiment: Western blot in HeLa cells; format: cell-based, human; details: 25 µM, 24 h
[10] = test system: HeLa cells; experiment: Annexin-V/PI flow cytometry; format: cell-based, human; details: 24 or 48 h
[11] = test system: tubulin; details: highest concentration examined 100 µM; cited from earlier work
[12] = test system: tubulin; details: cited from earlier work

COc1ccc(/C=C\c2cc(OC)c(OC)c(OC)c2)cc1O [CA-4, combretastatin A-4]
IC50 [1]: 0.02 ± 0.007 µM

COc1ccc2c(c1OC)C(=O)O[C@@H]2[C@H]1c2c(c(-c3ccccc3)c3c(c2OC)OCO3)CCN1C [Compound 4, 9′-Phenylnoscapine]
IC50 [2]: > 200 µM
cyclin B expression ([3]; 24 h): increased expression
cyclin B expression ([3]; 48 h): disappearance
cdc25C forms [4]: slower migrating forms
cdc25c expression [4]: strongly decreased
aurora kinase levels [5]: increased
expression of γ-H2A.X [6]: marked increase
Mcl-1 band [7]: strongly reduced

COc1ccc2c(c1OC)C(=O)O[C@@H]2[C@H]1c2c(c(-c3ccc4ccccc4c3)c3c(c2OC)OCO3)CCN1C [Compound 9, 9′-(2-Naphthyl)-noscapine]
IC50 [2]: > 200 µM

COc1cccc(-c2c3c(c(OC)c4c2OCO4)[C@H]([C@H]2OC(=O)c4c2ccc(OC)c4OC)N(C)CC3)c1 [Compound 7, 9′-(3-Methoxyphenyl)-noscapine]
IC50 [2]: > 200 µM
cells with induced spherical morphology (microtubule rearrangement) [8]: 70–80%

COc1ccc2c(c1OC)C(=O)O[C@@H]2[C@H]1c2c(c(Br)c3c(c2OC)OCO3)CCN1C [Compound 2, 9′-bromonoscapine, reference compound]
IC50 [2]: > 200 µM
cells with induced spherical morphology (microtubule rearrangement) [8]: 70–80%
cdc25c expression [4]: strongly decreased
Bcl-2 expression [9]: reduced
Mcl-1 band [7]: strongly reduced
annexin-V positive cells (apoptosis) [10]: slightly more active than the other three compounds
inhibition of colchicine binding (fluorescence) [11]: inhibition of colchicine binding

COc1ccc(-c2c3c(c(OC)c4c2OCO4)[C@H]([C@H]2OC(=O)c4c2ccc(OC)c4OC)N(C)CC3)cc1 [Compound 8, 9′-(4-Methoxyphenyl)-noscapine]
IC50 [2]: > 200 µM

COc1ccc2c(c1OC)C(=O)O[C@@H]2[C@H]1c2c(c(C)c3c(c2OC)OCO3)CCN1C [Compound 3, 9′-Methylnoscapine]
IC50 [2]: > 200 µM
cells with induced spherical morphology (microtubule rearrangement) [8]: 70–80%
cyclin B expression ([3]; 24 h): increased expression
cyclin B expression ([3]; 48 h): disappearance
aurora kinase levels [5]: increased
expression of γ-H2A.X [6]: marked increase
Bcl-2 expression [9]: reduced
Mcl-1 band [7]: strongly reduced

COc1ccc2c(c1OC)C(=O)O[C@@H]2[C@H]1c2c(cc3c(c2OC)OCO3)CCN1C [Compound 1, (S)-6,7-dimethoxy-3-((R)-4′-methoxy-6′-methyl-5′,6′,7′,8′-tetrahydro[1,3]dioxolo-[4,5]isoquinolin-5′-yl)isobenzofuran-1(3H)-one]
inhibition of colchicine binding (fluorescence) [11]: no activity
inhibition of [3H]colchicine binding to tubulin [12]: without success

COc1ccccc1-c1c2c(c(OC)c3c1OCO3)[C@H]([C@H]1OC(=O)c3c1ccc(OC)c3OC)N(C)CC2 [Compound 6, 9′-(2-Methoxyphenyl)-noscapine]
IC50 [2]: > 200 µM

COc1ccc2c(c1OC)C(=O)O[C@@H]2[C@H]1c2c(c(-c3ccc(C)cc3)c3c(c2OC)OCO3)CCN1C [Compound 5, 9′-(4-Methylphenyl)-noscapine]
IC50 [2]: > 200 µM
cyclin B expression ([3]; 24 h): increased expression
cyclin B expression ([3]; 48 h): disappearance
cdc25C forms [4]: slower migrating forms
cdc25c expression [4]: strongly decreased
aurora kinase levels [5]: increased
expression of γ-H2A.X [6]: marked increase
